This note sets out measurements from PubChem BioAssay AID1189 (EPA DSSTox, 2008).

The source made the active and inactive calls.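 The calls were made as follows: active = a tumor-causing dose value with its tumor site reported for any sex and species group of a rodent or other animal cancer study; inconclusive = only studies judged inadequate by the national testing program; inactive = tested in at least one study, none positive.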

A short description of the data set: DSSTox (CPDBAS) Carcinogenic Potency Database Summary SingleCellCall Results. The settings on record: animal chronic carcinogenicity bioassays, CPDB summary call. A digest of the protocol: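 Categorical carcinogenicity call compiled from published chronic rodent and other animal cancer bioassays; based on the most positive result across experiments for each sex-species, assigned on minimal evidence for or against activity.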
Turning to `CN(CCO)N=O`, the outcome was active.
In the case of `Nc1ccc(Sc2ccc(N)cc2)cc1` it was “active”; in that of `OCCO`, “inactive”.
Regarding `CC(N)=O`, the outcome is “active; inactive”.
In the case of `CN(N=O)c1ncnc2c1ncn2[C@@H]1O[C@H](CO)[C@@H](O)[C@H]1O` it was “active”; in that of `CC(=O)Nc1ccc2c(c1)C(=O)c1ccccc1-2`, “active”; in that of `CC/C=C(/CC)[N+](=O)[O-]`, “active”.
As for `Nc1ccc(-c2ccccc2)cc1O`, the result was inactive.
Regarding `CC(Cl)C=O` (stereo not given), the outcome was active.
Take `CC1(C)S[C@@H]2[C@H](NC(=O)[C@H](N)c3ccccc3)C(=O)N2[C@H]1C(=O)O`: the result was inactive.
Then `COc1cc(O)c2c(=O)c3c(OC)cc4c(c3oc2c1OC)C1C=COC1O4` (stereo not given), with “active”.
In the case of `COc1ccc(N)cc1N` it was “active”; in that of `Cc1ccc([N+](=O)[O-])cc1N`, “active”.
In the case of `OC[C@H]1O[C@@H]2O[C@H]3[C@H](O)[C@@H](O)[C@@H](O[C@H]4[C@H](O)[C@@H](O)[C@@H](O[C@H]5[C@H](O)[C@@H](O)[C@@H](O[C@H]6[C@H](O)[C@@H](O)[C@@H](O[C@H]7[C@H](O)[C@@H](O)[C@@H](O[C@H]8[C@H](O)[C@@H](O)[C@@H](O[C@H]1[C@H](O)[C@H]2O)O[C@@H]8CO)O[C@@H]7CO)O[C@@H]6CO)O[C@@H]5CO)O[C@@H]4CO)O[C@@H]3CO`, the result was inactive.
In the case of `IC(I)I` it was “inactive”; in that of `Cc1ncc([N+](=O)[O-])n1CCO`, “active”.
Then `Oc1ccccc1O`, with “active”; and `CCCCN(CCCC)C(=S)[S-].CCCCN(CCCC)C(=S)[S-].[Zn+2]`, with “inactive”; and `CC1=CC(C)(C)N(N=O)c2ccccc21`, with “active”.
Then `CCC(O)OC(O)CC` (stereo not given), with “inactive”; and `C[C@H]1C(=O)O[C@@H]2CCN3CC=C(COC(=O)[C@](C)(O)[C@]1(C)O)[C@H]23`, with “active”; and `C#C[C@]1(O)CC[C@H]2[C@@H]3CCc4cc(OC)ccc4[C@H]3CC[C@@]21C`, with “inactive”.
For `CC(=O)NNc1ccc(CO)cc1`, the result was active.
Then `C/C1=C\C=C(\C(C)C)[C@@H](O)C/C(C)=C/CC/C(C)=C/CC1`, with “inactive”; and `CCCCNNCCCC`, with “active; inactive”; and `N[C@@H](CCC(=O)NNc1ccc(CO)cc1)C(=O)O`, with “inactive”.
`Brc1cc(Br)c(-c2cc(Br)c(Br)cc2Br)cc1Br`: the outcome was active.
In the case of `C=C(C)[C@H]1CC=C(C)CC1` it was “active”; in that of `Oc1ccc(-c2ccccc2)cc1`, “inactive; active”.
In the case of `OCN(CO)c1nc(N(CO)CO)nc(N(CO)CO)n1` it was “active”.
Then `Cc1ccc(N)cc1`, with “active”; and `CO[C@H]1/C=C/O[C@@]2(C)Oc3c(C)c(O)c4c(O)c(c(/C=N/N5CCN(C)CC5)c(O)c4c3C2=O)NC(=O)/C(C)=C\C=C\[C@H](C)[C@H](O)[C@@H](C)[C@@H](O)[C@@H](C)[C@H](OC(C)=O)[C@@H]1C`, with “active; inactive”.
Regarding `c1ccc2c(c1)cc1ccc3cccc4ccc2c1c34`, the outcome was “active; inactive”.
In the case of `O=c1c(O)c(-c2ccc(O)cc2)oc2cc(O)cc(O)c12` it was “inactive”.
Then `CN(N=O)c1ncnc2nc[nH]c12`, with “active”; and `CCC(C(=O)NC(N)=O)c1ccccc1` (stereo not given), with “inactive”; and `ClC1(Cl)C2(Cl)C3C4(Cl)C1(Cl)C1(Cl)C4(Cl)C(Cl)(Cl)C3(Cl)C21Cl` (stereo not given), with “active; inactive”.
Then `CCCCCCCCCCCN(C)N=O`, with “active; inactive”; and `CN(N=O)C1=Nc2ccc(Cl)cc2C(c2ccccc2)=[N+]([O-])C1`, with “inactive”.
In the case of `NCC(=O)O`, the result was active.
With `N#Cc1c(Cl)c(Cl)c(Cl)c(C#N)c1Cl`, the outcome is “active; inactive”.
Then `CN(N=O)C(=O)NCCC[C@H](N)C(=O)O`, with “active”; and `CCOC(N)=O`, with “active; inactive”; and `CC(C)NCC(O)COc1cccc2ccccc12` (stereo not given), with “inactive”.
In the case of `NC(=O)CI` it was “inactive; active”.
In the case of `C=Cc1cccc[n+]1[O-]` it was “inactive”; in that of `O=C(O)CN(CCN(CC(=O)O)CC(=O)O)CC(=O)O`, “inactive”; in that of `CC1(C)S[C@@H]2[C@H](NC(=O)COc3ccccc3)C(=O)N2[C@H]1C(=O)O`, “inactive”.
With `Cc1cc(C)c(S(=O)(=O)O)cc1N=Nc1cc(S(=O)(=O)O)c2ccccc2c1O`, the outcome was active.
In the case of `CC(C)C[C@H]1C(=O)N2CCC[C@H]2[C@]2(O)O[C@](NC(=O)[C@@H]3C=C4c5cccc6[nH]c(Br)c(c56)C[C@H]4N(C)C3)(C(C)C)C(=O)N12` it was “active”; in that of `Cc1cc(O)c(C)c2c1OC(C)(CCCC(C)CCCC(C)CCCC(C)C)CC2` (stereo not given), “active”; in that of `CCOc1ccc2c(c1)C(C)=CC(C)(C)N2`, “inactive; active”.
Regarding `CNc1ncnc2c1ncn2[C@@H]1O[C@H](CO)[C@@H](O)[C@H]1O`, the outcome is “inactive; active”.
`C/C=N/N(C)C=O`: the outcome is “active; inactive”.
Then `C[C@@H]1C/C=C/C=C/C=C/C=C/[C@H](O[C@@H]2O[C@H](C)[C@@H](O)[C@H](N)[C@@H]2O)C[C@@H]2O[C@](O)(C[C@@H](O)C[C@H]3O[C@@H]3/C=C/C(=O)O1)C[C@H](O)[C@H]2C(=O)O`, with “inactive”.
Then `O=S(=O)(O)c1cc(S(=O)(=O)O)c2c(N=Nc3ccc(S(=O)(=O)O)c4ccccc34)c(O)ccc2c1`, with “active; inactive”; and `CCCCC1C(=O)N(c2ccccc2)N(c2ccccc2)C1=O`, with “active; inactive”; and `CCCC[N+](=O)[O-]`, with “inactive”.
Then `CC(O)CNC(=O)N(N=O)C(C)Cl` (stereo not given), with “active”; and `c1ccc2c(c1)Nc1ccccc1S2`, with “inactive”.
Regarding `Nc1ccc(Oc2ccc(N)c(N)c2)cc1`, the outcome was active.
In the case of `CCOc1ccc(NC(N)=O)cc1`, the outcome was active.
Then `Cc1nnc2n1-c1sc(CCc3ccc(CC(C)C)cc3)cc1C(c1ccccc1Cl)=NC2C` (stereo not given), with “inactive”; and `OCc1ccccc1`, with “inactive”.
For the compound `CN1CCCC1=O`, the outcome was active.
Regarding `CCCCCCCCCCC(C)c1ccc(S(=O)(=O)O)cc1` (stereo not given), the result was inactive.
Turning to `CNNCc1ccc(C(=O)NC(C)C)cc1`, the result was active.
Turning to `ClC(Cl)Cl`, the result was active.
In the case of `O=NN(CCO)CC(O)CO` (stereo not given) it was “active”.
Then `C1CCCNCCC1`, with “inactive”; and `COc1cc(/C=C/C(=O)CC(=O)/C=C/c2ccc(O)c(OC)c2)ccc1O`, with “inactive”.
In the case of `O=CCBr` it was “inactive; active”.
With `CN(N=O)c1ccccn1`, the outcome was active.
`CC1=C(/C=C/C(C)=C/C=C/C(C)=C/C(=O)O)C(C)(C)CCC1`: the result was inactive.
In the case of `CC(=O)OC(OC(C)=O)c1ccc([N+](=O)[O-])o1` it was “inactive”; in that of `CCC(C)[N+](=O)[O-]` (stereo not given), “active”; in that of `COc1cc(-c2ccc(N=C=O)c(OC)c2)ccc1N=C=O`, “active”.
Then `CC(=O)N[C@@H](CC(C)C)C(=O)N[C@@H](CC(C)C)C(=O)N[C@H](C=O)CCCN=C(N)N`, with “active; inactive”.
In the case of `CC1CC(C)(C)CC(OOC(C)(C)C)(OOC(C)(C)C)C1` (stereo not given) it was “inactive; active”; in that of `Cc1c2ccccc2c(C)c2c1ccc1ccccc12`, “active; inactive”; in that of `c1cc(OCC2CO2)cc(OCC2CO2)c1` (stereo not given), “active”.
`CCCCCCCCCCCCCCCC(=O)OC/C=C(C)/C=C/C=C(C)/C=C/C1=C(C)CCCC1(C)C`: the result was inactive.
Then `CCCCCCCC/C=C\CCCCCCCC(=O)O`, with “inactive”; and `ClC(Cl)(Cl)c1ccccc1`, with “active; inactive”; and `Clc1ccc(-c2ccc(Cl)c(Cl)c2Cl)c(Cl)c1Cl`, with “active”.
In the case of `Nc1ccc(Oc2ccc(N)cc2)cc1` it was “active”; in that of `CN(CCCC(=O)O)N=O`, “active”.
Turning to `CC(=O)OCC(=O)[C@@]12N=C(C)O[C@@H]1C[C@H]1[C@@H]3CCC4=CC(=O)C=C[C@]4(C)[C@H]3[C@@H](O)C[C@@]12C`, the outcome was active.
Then `COc1ccc2c(c1)c(CC(=O)O)c(C)n2C(=O)c1ccc(Cl)cc1`, with “active; inactive”.
In the case of `CCN(CC)CC#CC(C)(C)OC(=O)C(O)(c1ccccc1)C1CCCCC1` (stereo not given) it was “inactive; active”; in that of `CN1C2CC[C@@H]1CC(NC(=O)c1cc(Cl)cc3c1OC(C)(C)C3)C2` (stereo not given in full), “inactive”; in that of `Cc1noc(NS(=O)(=O)c2ccc(N)cc2)c1C`, “inactive”.
As to `ClC1=C(Cl)C2(Cl)C3C(Cl)C=CC3C1(Cl)C2(Cl)Cl` (stereo not given), the result was active.
As to `CNN`, the result was active.
Regarding `Cc1cc(-c2ccc(N)c(C)c2)ccc1N`, the result was active.
Then `CCOC(=O)[C@]1(c2ccccc2)CCC=C[C@H]1N(C)C`, with “inactive”; and `O=C1CC(=O)NC(=O)N1`, with “inactive”; and `ClC1=C(Cl)[C@]2(Cl)[C@@H]3[C@H]4C[C@H]([C@@H]5O[C@H]45)[C@@H]3[C@@]1(Cl)C2(Cl)Cl`, with “inactive”.
In the case of `O=[N+]([O-])c1ccc(O)c([N+](=O)[O-])c1` it was “inactive”.
Then `Nc1c(Cl)cc([N+](=O)[O-])cc1Cl`, with “inactive”.
